Data taken from patent US11485736B2 (KSQ Therapeutics, Inc., priority 2018, dated 2022).
pIC50: −log10 of the molar value.

Target: USP1/UAF1 (Homo sapiens (Human), UniProt O94782)
Test: Deubiquitination assay for USP1/UAF1 activity (ubiquitin-rhodamine 110)
Assay type: biochemical
Settings: Table 4; 0.05 nM USP1/UAF1, 150 nM ubiquitin-rhodamine
Protocol: Certain Compounds of the Disclosure were assessed for USP1/UAF1 activity in a Ubiquitin Rhodamine assay modified from those described previously.
Deubiquitinase activity was measured using ubiquitin-rhodamine 110 as a substrate. Cleavage of the amide bond between rhodamine and the c-terminal glycine of ubiquitin yields an increase in fluorescence signal. The assay was conducted in 20 ul total volume of assay buffer (50 mM Tris-HCl, pH 7.8, 0.5 mM EDTA, 0.01% Bovine Serum Albumin, 1 mM DTT, 0.01% Tween-20), and 0.05 nM USP1/UAF1 enzyme.
Compounds, dissolved in DMSO were tested in dose response format, beginning at 10 uM.
Compounds depicted below were added to enzyme/assay buffer mix and incubated 10 min.
Data for all assay formats was calculated as percent inhibition compared with control wells. […] IC50 values were calculated using the standard four parameter curve fitting algorithm in either Prism GraphPad (La Jolla, Calif.) software, or Collaborative Drug Discovery (Burlingame, Calif.) CDD Vault.

Chain of USP1/UAF1 (O94782 whole entry): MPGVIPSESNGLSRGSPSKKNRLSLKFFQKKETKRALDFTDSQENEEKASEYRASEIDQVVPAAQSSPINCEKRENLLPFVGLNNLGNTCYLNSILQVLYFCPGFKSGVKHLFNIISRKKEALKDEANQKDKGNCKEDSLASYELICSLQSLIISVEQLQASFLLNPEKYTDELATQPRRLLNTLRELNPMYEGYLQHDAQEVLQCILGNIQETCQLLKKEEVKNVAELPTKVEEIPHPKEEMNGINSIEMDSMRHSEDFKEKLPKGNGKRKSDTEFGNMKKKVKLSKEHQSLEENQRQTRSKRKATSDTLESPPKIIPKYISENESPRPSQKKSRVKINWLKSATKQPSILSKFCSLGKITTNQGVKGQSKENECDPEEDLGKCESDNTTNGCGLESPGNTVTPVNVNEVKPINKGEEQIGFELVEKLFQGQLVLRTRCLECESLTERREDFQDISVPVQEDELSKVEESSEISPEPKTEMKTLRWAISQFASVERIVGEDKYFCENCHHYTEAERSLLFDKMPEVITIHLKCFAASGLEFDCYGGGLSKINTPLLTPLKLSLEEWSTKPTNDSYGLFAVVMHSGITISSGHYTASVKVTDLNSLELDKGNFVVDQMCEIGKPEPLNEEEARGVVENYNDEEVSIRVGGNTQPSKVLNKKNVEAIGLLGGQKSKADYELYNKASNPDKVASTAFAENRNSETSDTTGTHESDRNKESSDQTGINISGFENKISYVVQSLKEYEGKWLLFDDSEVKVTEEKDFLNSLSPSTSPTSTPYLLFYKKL
Chain of USP1/UAF1 (Q8TAF3 whole entry partner): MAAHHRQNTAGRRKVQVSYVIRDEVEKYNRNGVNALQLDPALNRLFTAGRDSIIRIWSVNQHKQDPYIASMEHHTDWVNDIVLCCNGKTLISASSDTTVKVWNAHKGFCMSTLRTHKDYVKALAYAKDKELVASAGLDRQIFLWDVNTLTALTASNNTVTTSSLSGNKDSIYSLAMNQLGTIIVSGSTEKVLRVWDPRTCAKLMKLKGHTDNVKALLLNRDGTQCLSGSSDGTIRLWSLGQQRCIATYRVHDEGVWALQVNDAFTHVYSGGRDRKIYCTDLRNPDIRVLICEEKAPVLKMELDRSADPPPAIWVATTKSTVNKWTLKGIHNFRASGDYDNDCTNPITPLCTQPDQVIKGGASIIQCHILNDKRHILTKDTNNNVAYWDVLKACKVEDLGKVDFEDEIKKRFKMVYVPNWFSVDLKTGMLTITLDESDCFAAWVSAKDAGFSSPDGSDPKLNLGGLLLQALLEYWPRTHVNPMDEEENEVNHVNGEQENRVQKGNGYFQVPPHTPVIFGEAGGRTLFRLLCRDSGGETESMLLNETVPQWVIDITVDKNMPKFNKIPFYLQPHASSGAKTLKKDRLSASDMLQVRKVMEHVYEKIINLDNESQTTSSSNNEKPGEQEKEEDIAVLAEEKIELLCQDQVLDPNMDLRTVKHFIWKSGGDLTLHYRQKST

SMILES	pIC50
CCn1cc(C(F)(F)F)nc1-c1ccc(Cn2nc(OC)c3cnc(-c4c(OC)ncnc4C4CC4)nc32)cc1 [drawing 820]	7.00 to 8.00
COc1ncnc(C2CC2)c1-c1ncc2nc(C)n(Cc3ccc(-c4nc(C(F)(F)F)cn4C)cc3)c2n1 [drawing 821]	6.70 to 7.00
COc1ncnc(C2CC2)c1-c1ncc2nc(C3CC3)n(Cc3ccc(-n4nc(C(F)(F)F)cc4C)cc3)c2n1 [drawing 822]	7.00 to 8.00
COc1ncnc(C2CC2)c1-c1ncc2nc(C3CCC3)n(Cc3ccc(-n4nc(C(F)(F)F)cc4C)cc3)c2n1 [drawing 823]	7.00 to 8.00
COc1ncnc(C2CC2)c1-c1ncc2nc(C(C)C)n(Cc3ccc(-n4nc(C(F)(F)F)cc4C)cc3)c2n1 [drawing 824]	6.70 to 7.00
CCc1nc2cnc(-c3c(OC)ncnc3C3CC3)nc2n1Cc1ccc(-n2nc(C(F)(F)F)cc2C)cc1 [drawing 825]	7.00 to 8.00
COc1ncnc(C2CC2)c1-c1ncc2ccn(Cc3ccc(-c4nc(C(F)(F)F)cn4C)cc3)c2n1 [drawing 826]	7.00 to 8.00
COc1ncnc(C2CC2)c1-c1ncc2nc(C)n(Cc3ccc(-n4nc(C(F)(F)F)cc4C)cc3)c2n1 [drawing 827]	7.00 to 8.00
COc1ncnc(C2CC2)c1-c1ncc2nnn(Cc3ccc(-c4nc(C(F)(F)F)cn4C)cc3)c2n1 [drawing 828]	7.00 to 8.00
COc1ncnc(C2CC2)c1-c1ncc2ncn(Cc3ccc(-n4nc(C(F)(F)F)cc4C)cc3)c2n1 [drawing 830]	6.70 to 7.00
COc1ncnc(C2CC2)c1-c1ncc2ncn(Cc3ccc(-c4nc(C(F)(F)F)cn4C)cc3)c2n1 [drawing 831]	6.70 to 7.00
CC(C)c1ccccc1-c1ncc2ncn(Cc3ccc(-c4nc(C(F)(F)F)cn4C)cc3)c2n1 [drawing 832]	7.00 to 8.00

Second part, the molecule after the results:

pIC50	SMILES
7.00 to 8.00	CCn1cc(C(F)(F)F)nc1-c1ccc(Cn2nc(OC3CCC3)c3cnc(-c4c(OC)ncnc4C4CC4)nc32)cc1 [drawing 806]
7.00 to 8.00	COc1ncnc(C2CC2)c1-c1ncc2c(OC)nn(Cc3ccc(-c4cn(C(C)C)c(C(F)(F)F)n4)cc3)c2n1 [drawing 807]
7.00 to 8.00	CCc1nc2cnc(-c3c(OC)ncnc3C3CC3)nc2n1Cc1ccc(-c2nc(C(F)(F)F)cn2C(C)C)cc1 [drawing 808]
7.00 to 8.00	COc1ncnc(C2CC2)c1-c1ncc2c(OC)nn([C@@H](C)c3ccc(-c4nc(C(F)(F)F)cn4CCF)cc3)c2n1 [drawing 809]
7.00 to 8.00	CCn1cc(C(F)(F)F)nc1-c1ccc(Cn2nc(N3CCC3)c3cnc(-c4c(OC)ncnc4C4CC4)nc32)cc1 [drawing 810]
7.00 to 8.00	CCn1c(-c2ccc(Cn3nc(OC)c4cnc(-c5c(OC)ncnc5C5CC5)nc43)cc2)nc(C(F)(F)F)c1Br [drawing 811]
7.00 to 8.00	COc1ncnc(C2CC2)c1-c1ncc2c(OC)nn(C(C)c3ccc(-c4nc(C(F)(F)F)cn4CCF)cc3)c2n1 (centres unmarked) [drawing 812]
7.00 to 8.00	CCn1cc(C(F)(F)F)nc1-c1ccc([C@H](C)n2nc(OC)c3cnc(-c4c(OC)ncnc4C4CC4)nc32)cc1 [drawing 813]
7.00 to 8.00	COc1ncnc(C2CC2)c1-c1ncc2c(OC)nn([C@@H](C)c3ccc(-c4nc(C(F)(F)F)cn4C(C)C)cc3)c2n1 [drawing 814]
7.00 to 8.00	CCOc1ncnc(C2CC2)c1-c1ncc2c(OCC)nn(Cc3ccc(-c4nc(C(F)(F)F)cn4CC)cc3)c2n1 [drawing 815]
7.00 to 8.00	CCOc1nn(Cc2ccc(-c3nc(C(F)(F)F)cn3CC)cc2)c2nc(-c3c(OC)ncnc3C3CC3)ncc12 [drawing 816]
7.00 to 8.00	CCn1cc(C(F)(F)F)nc1-c1ccc(Cn2nc(OC)c3cnc(-c4c(OC)ncnc4C4CC4)nc32)cc1F [drawing 817]
7.00 to 8.00	COc1ncnc(C2CC2)c1-c1ncc2ncn(Cc3ccc(-c4nc(C(F)(F)F)cn4C(C)C)cc3)c2n1 [drawing 818]
7.00 to 8.00	CCn1cc(C(F)(F)F)nc1-c1ccc(Cn2nc(OC)c3cnc(-c4c(OC)ncnc4C4CC4)nc32)cc1 [drawing 819]
